A short description of series [1]: DPPH radical scavenging (antioxidant) assay. The conditions noted are these: for IC50: isolated compounds. The procedure:
Free radical scavenging activity of the test fractions/compounds was determined by measuring the change in absorbance of DPPH (l, l-Diphenyl-2-picrylhydrazyl radical, Sigma-Aldrich, St Louis, MO, USA) at 515 nm by the microplate reader (SpectraMax M2, Molecular Devices, CA, USA) as previously described. […] The IC50 values of the tested compounds were calculated using nonlinear regression through GraphPad Prism 4 software (La Jolla, CA, USA).

Series [2] is described as follows: MTT cytotoxic activity assay on MDA-MB-231 breast cancer cells. Type of series: cell-based, human. The conditions noted are these: human, MDA-MB-231 breast cancer cells; for viability at 24 h, 25 µM / viability at 24 h, 75 µM: read-out: cell viability; for viability at 24 h, 75 µM: MDA-MB-231, 75 µM. The method, then:
(§1) Cytotoxic activity was performed according to the previously described methods. Breast cancer cell lines MDA-MB-231 were maintained in Dulbecco’s modified eagle medium (DMEM, Invitrogen, Carlsbad, CA, USA). The media was supplemented with 10% fetal bovine serum (FBS) and 1% antimycotic antibiotic (Invitrogen, Carlsbad, CA, USA). Cells were cultured in a 5% CO2-humidified atmosphere at 37 °C. Stock solution (5 mg/mL) of 3-(4,5-dimethylthiazol-2-yl)-2,5-diphenyltetrazolium bromide (MTT, Merck, Darmstadt, Hesse, Germany) was prepared in phosphate-buffered saline (PBS).
(§2) Cells were seeded at a density of 1 × 10^4 cells per well in 96-well microtiter culture plates. After overnight incubation, normal growth medium was removed and replaced with either fresh medium (untreated control) or different concentrations of respective compounds in growth medium diluted from a 2 mM stock. After 24 h of incubation, MTT solution was added to each well (0.1 mg/mL in DMEM) and incubated further for 4 h at 37 °C. Upon termination, the supernatant was aspirated and the MTT formazan, formed by metabolically viable cells, was dissolved in a solubilization solution containing DMSO (100 սL) by mixing for 5 min on a gyratory shaker. The absorbance was measured at 540 nm (reference wavelength 690 nm) on an Ultra Multifunctional Microplate Reader (Bio-Rad, Hercules, California, USA). Absorbance of control (without treatment) was considered as 100% cell survival. Each treatment had three replicate wells [56]. The IC50 values of the active compounds were calculated using nonlinear regression through GraphPad Prism 4 software (La Jolla, CA, USA).

The subject of series [3] is MDA-MB-231 breast cancer cells. The description is as above. It is filed as cell-based, human. The conditions noted are these: for IC50: MDA-MB-231, MTT, 24 h incubation, read-out: IC50 (Mean ± SEM). The procedure:
as §1, §2

For another series, the target named is T1, bovine erythrocyte CA-II (Bos taurus, UniProt P00921).
T1 construct: purified bovine erythrocyte CA-II; purchased Sigma-Aldrich; host or cells: bovine erythrocytes (natural source)
T1 sequence (P00921 whole entry): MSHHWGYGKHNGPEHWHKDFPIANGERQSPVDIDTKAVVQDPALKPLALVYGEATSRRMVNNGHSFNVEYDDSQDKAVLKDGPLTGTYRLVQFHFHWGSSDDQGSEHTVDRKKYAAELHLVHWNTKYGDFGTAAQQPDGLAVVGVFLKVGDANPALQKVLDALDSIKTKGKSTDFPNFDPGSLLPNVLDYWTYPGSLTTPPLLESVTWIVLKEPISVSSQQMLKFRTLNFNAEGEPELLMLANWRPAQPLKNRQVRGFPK
In words: Carbonic anhydrase II inhibition (4-nitrophenyl acetate). It is filed as biochemical. Further details: % Inhibition: concentration or dose not given beside the values. Particulars: CA-II in vitro; for IC50: read-out: IC50 (µM) ± (SEM). The method, then:
The total reaction volume of 200 µL included 20 µL of test compounds prepared in DMSO, followed by the addition of 140 µL of the HEPES–tris buffer, 20 µL of purified bovine erythrocyte CA-II (0.1 mg/mL) prepared in buffer, and 20 µL of a solution of 4-nitrophenyl acetate. A 20 µL amount of test compound was incubated with the enzyme (EC 4.2.1.1, Sigma-Aldrich, St. Louis, MO, USA) for 15 min in a 96-well flat-bottom plate. The rate of product formation was monitored with the addition of 20 µL of 4-NPA as substrate, prepared in methanol at the final concentration of 0.7 mM, at 25 °C for 30 min with regular intervals of 1 min, by using microplate readers (Bio-Rad, Molecular Devices, CA, USA). HEPES-tris was used as a buffer for the reaction at the final concentration of 20 mM at pH 7.4. The percent inhibition was calculated by using the following formula:% Inhibition = 100 − (OD test well/OD control) × 100

The conditions of series [4]: reported earlier by the group; cited from earlier work.

Each structure is given as a SMILES string. Where two headings read alike, the source gives them in different places.

As for `O=C1O[C@H]([C@@H](O)CO)C(O)=C1O` [Ascorbic acid, reference compound], the “Antioxidant % Inhibition” value in series [1] (concentration = 1 mg/mL) came to 90%. Besides, the “Antioxidant IC50 ± SEM” value in series [1] (fractions and standard) stood at 53 ± 1.32 µg/mL.

Consider `C=C1CC[C@H]2C(=C)CC[C@H]3C(=C)C(=O)O[C@@H]3[C@@H]12` [Compound 1, dehydrocostus lactone], for which, in series [2] (MDA-MB-231, 25 µM), the viability at 24 h, 25 µM was found to be 76%. Further, the IC50 in series [3] (Homo sapiens, MDA-MB-231, 24 h) was 35.4 ± 2.56 µM. The inhibition at 100 µM in series [3] (Homo sapiens, MDA-MB-231, 100 µM, read-out: inhibition of cell proliferation) amounted to 92.1%. In addition, the “antioxidant activity (in words)” value in series [1] is “moderate activity”. In addition, on bovine erythrocyte CA-II, the “% Inhibition” value is given as 33% and the “IC50 (µM) ± (SEM)” value is “inactive”.

As to `C=C1C(=O)O[C@@H]2/C=C(\C)CC/C=C(\C)CC[C@@H]12` [Compound 2, costunolide], the viability at 24 h, 25 µM in series [2] (MDA-MB-231, 25 µM) was 81 to 89%. The IC50 was 42.1 ± 2.98 µM in series [3] (Homo sapiens, MDA-MB-231, 24 h) and 24.4 µM at bovine erythrocyte CA-II. For the same molecule, the “% Inhibition” value on bovine erythrocyte CA-II worked out at 84.7%.

Regarding `C=C1C(=O)OC2C1CCC(O)C1(C)CCC(C)(O)C21` (stereo not shown) [Compound 3, lyciumate], in series [2] (MDA-MB-231, 25 µM), the viability at 24 h, 25 µM lay within 81 to 89%. Moreover, the 50% inhibitory concentration (IC50) in series [3] (Homo sapiens, MDA-MB-231, 24 h) was 49.4 ± 3.73 µM.

In the case of `Oc1cc(O)c2c(c1)O[C@H](c1ccc(O)c(O)c1)[C@@H](O)C2` [Compound 4, catechin], the half-maximal inhibitory concentration (IC50) in series [3] (Homo sapiens, MDA-MB-231, 24 h) was determined as 101 ± 7.09 µM. Moreover, in series [1], the “% Inhibition (1 mM)” value is listed as 78% and the IC50 was found to be 55 ± 2 µM.

On to `O=C1c2cccc(O)c2C(=O)c2c(O)cc(CO)cc21` [Compound 5, aloe emodin], for which the IC50 in series [3] (Homo sapiens, MDA-MB-231, 24 h) was roughly 31 µM; in series [3] it was 31.4 ± 2.44 µM; on bovine erythrocyte CA-II, 14.4 ± 1.14 µM. Moreover, in series [3] (MDA-MB-231, 25 µM), the “loss of cell viability” value stood at 50.53%. The “% Inhibition” value on bovine erythrocyte CA-II was 86.3%.

Turning to `Cc1cc(O)c2c(c1)C(=O)c1cc(O)cc(O)c1C2=O` [Compound 6, emodin], the half-maximal inhibitory concentration (IC50) in series [3] (Homo sapiens, MDA-MB-231, 24 h) came out at 73 µM; in series [3], 73.5 ± 5.89 µM; in series [1], 645 ± 1.5 µM. The “% Inhibition (1 mM)” value in series [1] is 71%.

Regarding `CC1OC(OCc2cc(O)c3c(c2)C(=O)c2cccc(O)c2C3=O)C(O)C(O)C1O` (stereo not shown) [Compound 8, aloe emodine 11-O-rhamnoside], in series [2] (MDA-MB-231, 25 µM), the viability at 24 h, 25 µM was in the range of 81 to 89%. Moreover, the IC50 in series [3] (Homo sapiens, MDA-MB-231, 24 h) came out at 72 µM; in series [3], 72.2 ± 6.29 µM.

Regarding `O=C(/C=C/c1ccccc1)O[C@@H]1O[C@H](CO)[C@@H](O)[C@H](O)[C@H]1OC(=O)c1cc(O)c(O)c(O)c1` [Compound 9, lyciumaside], the viability at 24 h, 25 µM in series [2] (MDA-MB-231, 25 µM) lay within 81 to 89%. Moreover, the half-maximal inhibitory concentration (IC50) in series [3] (Homo sapiens, MDA-MB-231, 24 h) came out at 76 µM; in series [3], 76.9 ± 7.04 µM. In addition, the “cytotoxic effect / cell growth inhibition” value in series [3] (MDA-MB-231, 25 µM) is on record as “did not inhibit cell growth significantly”. The “loss of cell viability” value in series [3] (MDA-MB-231, 100 µM) is on record as “approximately 70%”. In addition, the cell growth inhibition entry in series [3] (MDA-MB-231, concentrations above 50 µM) is “above 50%”. For the same molecule, the “antioxidant IC50” value in series [4] is 30 µg/mL.

Regarding `O=C1c2c(O)cccc2[C@](O)([C@@H]2O[C@H](CO)[C@@H](O)[C@H](O)[C@H]2O)c2cc(CO)cc(O)c21` [Compound 10, 10-hydroxy aloin A], in series [2], the viability at 24 h, 75 µM came out at 77%. For the same molecule, the half-maximal inhibitory concentration (IC50) in series [3] (Homo sapiens, MDA-MB-231, 24 h) amounted to 143 ± 12.7 µM. In addition, the “cytotoxic effect / cell growth inhibition” value in series [3] (MDA-MB-231, 25 µM) is listed as “growth-promoting effect”.

For `C[C@@H]1O[C@@H](OCc2cc(O)c3c(c2)[C@H]([C@@H]2O[C@H](CO)[C@@H](O)[C@H](O)[C@H]2O)c2cccc(O)c2C3=O)[C@H](O)[C@H](O)[C@H]1O` [Compound 11, aloinoside B], in series [2], the viability at 24 h, 75 µM is 64%. The IC50 in series [3] (Homo sapiens, MDA-MB-231, 24 h) was 140 ± 13.1 µM. Also, the “cytotoxic effect / cell growth inhibition” value in series [3] (MDA-MB-231, 25 µM) is on record as “no cell growth inhibition”.

As to `COc1cc(=O)oc2cc(O)cc(C)c12` [Compound 12, 7-demethylsiderin], the inhibition at 24 h, 25 µM in series [2] (MDA-MB-231, 25 µM, read-out: cytotoxic effect / cell growth inhibition) is roughly 14%. In addition, the viability at 24 h, 75 µM in series [2] amounted to 44%. The IC50 in series [3] (Homo sapiens, MDA-MB-231, 24 h) turned out to be 60.1 ± 4.82 µM. Moreover, at bovine erythrocyte CA-II, the “% Inhibition” value is on record as 91.2% and the half-inhibitory concentration (IC50) was 23.3 ± 1.63 µM.

Take `CC(=O)Cc1cc(=O)c2c(C)cc(O)c(C3OC(COC(=O)C=Cc4ccc(O)cc4)C(O)C(O)C3O)c2o1` (stereo not shown) [Compound 13, 6′-O-coumaroylaloesin]: in series [1], the “% Inhibition (1 mM)” value is on record as 73% and the IC50 turned out to be 762 ± 2 µM.

As for `C[C@@H]1C[C@@H](O)Cc2cc(O)cc(O)c21` [Compound 14, feroxidin], in series [1], the “% Inhibition (1 mM)” value amounted to 80% and inhibition was half-maximal at 241 ± 1.5 µM (IC50).

Regarding `COc1cccc2c1C(=O)c1c(O)c3c(c(O)c1C2=O)C[C@@](O)(C(=O)CO)C[C@@H]3O[C@H]1C[C@H](N)[C@H](O)[C@H](C)O1` [Doxorubicin, reference compound], in series [3] (Homo sapiens, MDA-MB-231, 24 h), the IC50 is 3.31 ± 0.19 µM.

Values taken from article PMC7281707, “Antiproliferative and Carbonic Anhydrase II Inhibitory Potential of Chemical Constituents from Lycium shawii and Aloe vera: Evidence from In Silico Target Fishing and In Vitro Testing” (Pharmaceuticals, 2020).
